Experimental data reported in US20260240879A1, “TOPICAL PALA THERAPY FOR CANCER” (priority 2023, published 2026).
Where two headings read alike, the source gives them in different places.

Key:
[1] = test system: chemical carcinogen-induced skin cancer; conditions: 2% (w/v) PALA in 50% acetone/10% glycerol, topical, 4 weeks
Description: SKH1-Elite female mice were treated topically with DMBA for 2 weeks and then treated topically with TPA thrice a week for 8 weeks to induce skin cancer. Mice were then randomized into treatment groups and treated topically with vehicle (50% acetone/10% glycerol) or 2% (w/v) PALA for 4 weeks. A. Quantitation of mean change in tumor burden per mouse during the treatment period as a percentage of the tumor number on week 9. B. Weight change during the treatment period presented as percentage of baseline weight. C. Levels of the liver and systemic inflammation marker serum amyloid A (SAA) at endpoint. D. Measurements of colon length at endpoint as a gross measure of intestinal pathology. Means±SEM, n=8-9/group. Significance determined by 2-way ANOVA with Sidak's multiple comparisons test or unpaired […] t-test. All p values <0.05 are shown on the graphs.

UVB-induced skin tumors = assay: Immunostaining of excised skin tumors (cell cycle markers, antimicrobial peptides, immune cells); assay type: in vivo, SKH1-Elite mice
[2] = test system: cytokines and chemokines in treated skin; conditions: mouse, in vivo
Description: The topical formulations of 2% PALA/50% acetone/10% glycerol, 5% imiquimod (IMQ), 5% 5-FU (5-FU), vehicle (50% acetone/10% glycerol) control, and Aquaphor were applied (~0.05 g/mouse) daily to the dorsal skin of SKH1-Elite female mice (8 weeks of age; n=5/group) for 7 days. […] Mice were monitored daily for weight change, skin appearance, and signs of distress.
Skin protein lysates were made by homogenizing frozen tissue with a pestle and scissors in RIPA buffer (50 mM Tris, pH8, 150 mM NaCl, 0.5% sodium deoxycholate, 1% NP-40, 0.1% sodium dodecyl sulfate, lx Pierce protease inhibitor cocktail (A32965, ThermoFisher)). Cytokines and chemokines were quantified from 25 μg of lysate using a custom 10-plex U-PLEX panel (K15069L-2; Meso Scale Discovery) that included: GM-CSF, KC/CXCL1, IFNα, IFNβ, IFNγ, IL-10, IL-6, IL-12p70, IL-17A, IL-17C, IL-17F, IP-10/CXCL10, MCP-1/CCL2, RANTES/CCL5, and TNFα. The MESO SECTOR S 600 plate reader (ICOAA-0; Meso Scale Discovery) was used to collect the U-Plex data and data was analyzed using MSD Discovery Workbench 4.0 software.

[3] = In vitro diffusion test (Franz cells); assay type: in vitro ADME; conditions: PALA 50 mg/g, 37° C., PBS pH 7.4
Description: All the formulations were prepared by accurately weighing 50 mg PALA in a 4 mL glass vial. The vial was stirred at RT until a clear solution was obtained. Exception for poloxamers P407 20% w/w and P188 at 40% w/w where the PALA solubilisation was performed by stirring the vial in an ice bath (to prevent gelling which occurred at RT).
In vitro diffusion test (Franz cells, Copley) was performed to mimicking in-vivo conditions of PALA (CMI-34-1) transfer from the formulation through the skin. The test was performed in sink conditions. 100 μL of PALA (CMI-34-1)-loaded hydrogels or bi-gel (containing 5 mg of API) were added to the donor chamber of the Franz cells. 7 mL of PBS pH 7.4 was added to the receptor chamber. The chambers were separated by a Strat-M Membrane (Transdermal Diffusion Test Model, Merck) of 25 mm diameter. The Franz cells were incubated at 37° C. in an appropriate heating block and under stirring at 450 rpm. At selected time points (15, 30, 60, 120, 180, and 1440 minutes), 100 μL of samples was withdrawn from the receptor chamber and analysed by HPLC for drug release. The same volume was replaced with fresh PBS buffer pre-heated at 37° C.

[4] = test system: chemical carcinogen-induced skin cancer; assay: Chemical carcinogen (DMBA/TPA)-induced skin cancer model, C57BL/6; assay type: in vivo, C57BL/6 female mice; conditions: 2% (w/v) PALA/Aquaphor, topical, 4 weeks
Description: Means±SEM, n=5-6/group. Significance determined by 2-way ANOVA

Compound: O=C(O)CC(NC(=O)CP(=O)(O)O)C(=O)O [PALA, N-phosphonacetyl-L-aspartate]
- change in tumor burden [1]: trends of efficacy in reducing tumor burden
- CD8+ cytotoxic T cells in tumors (UVB-induced skin tumors; PALA compared to vehicle-treated controls): elevated numbers
- F4/80+ macrophages in tumors (UVB-induced skin tumors; PALA relative to vehicle-treated controls): increased numbers
- LL-37+ cells in tumor samples (UVB-induced skin tumors; PALA vs vehicle): significantly increased
- numbers of MPO+ cells (neutrophils) in tumors (UVB-induced skin tumors; PALA vs vehicle): the same
- overall number of CD3+ T cells within tumor tissue (UVB-induced skin tumors; PALA vs vehicle): the same
- total area of DefB14 staining within tumors (UVB-induced skin tumors; PALA vs vehicle): not different
- phospho-histone H3+ cells (UVB-induced skin tumors; excised tumors, 2% PALA, vehicle 3.1%, p=0.0067): 4.9%
- Ki67+ cells per tumor (UVB-induced skin tumors; excised tumors, 2% PALA, vehicle 10.4%, p=0.005): 24.6%
- cyclin D1+ cells per tumor (UVB-induced skin tumors; excised tumors, 2% PALA, vehicle 48.9%, p=0.0329): 39.4%
- cyclin B1+ or cyclin A2+ cell populations (UVB-induced skin tumors; excised tumors, PALA vs vehicle): No differences
- GM-CSF, Mean (SEM) [2]: 1.0 (0.1)
- IL-6, Mean (SEM) [2]: 38.8 (8.1)
- IL-17A, Mean (SEM) [2]: 0.5 (0.09)
- IL-17C, Mean (SEM) [2]: 0.6 (0.1)
- KC, Mean (SEM) [2]: 31.1 (2.8)
- RANTES, Mean (SEM) [2]: 46.4 (9.6)
- expression of inflammatory cytokine/chemokine panel in treated skin (in words) [2]: no changes
- PALA permeated / released after 24 hours [3]: ~ 0.3%
- change in tumor burden [4]: effective in reducing tumor burden
